According to ChEMBL document CHEMBL1201862, “PubChem BioAssay data set” (2004):
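Five compound concentrations were applied to cells in 96-well plates for 48 hours; endpoints were derived by simple linear interpolation of the resulting dose-response curve. At the GI50, growth is halved.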 The source made the active and inactive calls. No stated cut-off is given here; in the data, active = GI50 up to about 1.1 µM and inactive = higher.

What was measured:
Test in all cases: NCI tumour cell line growth inhibition, 48 h
786-0 = tested on: 786-0
BT-549 = tested on: BT-549
CCRF-CEM = tested on: CCRF-CEM
COLO 205 = tested on: COLO 205
EKVX = tested on: EKVX
HCC 2998 = tested on: HCC 2998
HT-29 = tested on: HT-29
K562 = tested on: K562
KM12 = tested on: KM12
MCF7 = tested on: MCF7
NCI-H23 = tested on: NCI-H23
OVCAR-3 = tested on: OVCAR-3
SF-268 = tested on: SF-268
SK-MEL-28 = tested on: SK-MEL-28
SK-MEL-2 = tested on: SK-MEL-2
SK-MEL-5 = tested on: SK-MEL-5
SR = tested on: SR
SW-620 = tested on: SW-620
U-251 = tested on: U-251
UACC-257 = tested on: UACC-257

SMILES	GI50 (786-0)	GI50 (BT-549)	GI50 (CCRF-CEM)	GI50 (COLO 205)	GI50 (EKVX)	GI50 (HCC 2998)	GI50 (HT-29)	GI50 (K562)	GI50 (KM12)	GI50 (MCF7)	GI50 (NCI-H23)	GI50 (OVCAR-3)	GI50 (SF-268)	GI50 (SK-MEL-28)	GI50 (SK-MEL-2)	GI50 (SK-MEL-5)	GI50 (SR)	GI50 (SW-620)	GI50 (U-251)	GI50 (UACC-257)
O=C(c1ccccc1)c1c(C(F)(F)F)[n+]([O-])c2cc(Cl)c(Cl)cc2[n+]1[O-]	0.502 µM (active)	1.39 µM (inactive)	0.467 µM (active)	2.93 µM (inactive)	3.27 µM (inactive)	2.16 µM (inactive)	0.473 µM (active)	2.24 µM (inactive)	0.548 µM (active)	0.557 µM (active)	0.565 µM (active)	0.403 µM (active)	0.671 µM (active)	2.86 µM (inactive)	3.32 µM (inactive)	2 µM (inactive)	0.175 µM (active)	0.619 µM (active)	1.23 µM (inactive)	0.243 µM (active)
Oc1nc2cc(Cl)ccc2nc1/C(=N\Nc1ccccc1)C(O)c1ccc2c(c1)OCO2 (centres undefined)	> 100 µM (inactive)	> 100 µM (inactive)	> 100 µM (inactive)	> 100 µM (inactive)	> 100 µM (inactive)	> 100 µM (inactive)	> 100 µM (inactive)	> 100 µM (inactive)	> 100 µM (inactive)	> 100 µM (inactive)	> 100 µM (inactive)	> 100 µM (inactive)	> 100 µM (inactive)	> 100 µM (inactive)	> 100 µM (inactive)	> 100 µM (inactive)	> 100 µM (inactive)	> 100 µM (inactive)	> 100 µM (inactive)	> 100 µM (inactive)
Clc1ccccc1/C=C/c1ccnc2ccccc12	15.8 µM (inactive)	14.6 µM (inactive)	20.5 µM (inactive)	13.8 µM (inactive)	5.48 µM (inactive)	18.2 µM (inactive)	16 µM (inactive)	15.9 µM (inactive)	17.4 µM (inactive)	11.6 µM (inactive)	14.1 µM (inactive)	14.5 µM (inactive)	18.9 µM (inactive)	19.6 µM (inactive)	16.6 µM (inactive)	15.1 µM (inactive)	17 µM (inactive)	18.4 µM (inactive)	16.8 µM (inactive)	15.1 µM (inactive)
C/C(=N\NC(=S)Nc1ccc(C)cc1)c1nc2cccnc2[nH]1	1.6 µM (inactive)	1.23 µM (inactive)	0.452 µM (active)	3.9 µM (inactive)	0.61 µM (active)	5.47 µM (inactive)	0.681 µM (active)	2.9 µM (inactive)	7.6 µM (inactive)	0.721 µM (active)	2.65 µM (inactive)	0.483 µM (active)	0.587 µM (active)	2.86 µM (inactive)	10.8 µM (inactive)	1.76 µM (inactive)	0.849 µM (active)	3.57 µM (inactive)	1.45 µM (inactive)	2.38 µM (inactive)
C(#CP(c1ccccc1)c1ccccc1)P(C#CP(c1ccccc1)c1ccccc1)c1ccccc1	> 100 µM (inactive)	> 100 µM (inactive)	> 100 µM (inactive)	> 100 µM (inactive)	> 100 µM (inactive)	> 100 µM (inactive)	> 100 µM (inactive)	> 100 µM (inactive)	> 100 µM (inactive)	> 100 µM (inactive)	–	> 100 µM (inactive)	> 100 µM (inactive)	> 100 µM (inactive)	> 100 µM (inactive)	> 100 µM (inactive)	> 100 µM (inactive)	> 100 µM (inactive)	> 100 µM (inactive)	> 100 µM (inactive)
CN(/N=C/c1ccc(OCc2cccc(COc3ccc(C=O)cc3)n2)cc1)c1cnn(-c2ccc(Cl)cc2Cl)c(=O)c1Cl	81.8 µM (inactive)	66.7 µM (inactive)	> 100 µM (inactive)	> 100 µM (inactive)	16 µM (inactive)	> 100 µM (inactive)	> 100 µM (inactive)	> 100 µM (inactive)	> 100 µM (inactive)	> 100 µM (inactive)	> 100 µM (inactive)	> 100 µM (inactive)	56 µM (inactive)	> 100 µM (inactive)	33 µM (inactive)	> 100 µM (inactive)	> 100 µM (inactive)	> 100 µM (inactive)	26.9 µM (inactive)	> 100 µM (inactive)
O=C(O)CC1(C(=O)O)CCCCC1	> 100 µM (inactive)	> 100 µM (inactive)	> 100 µM (inactive)	> 100 µM (inactive)	> 100 µM (inactive)	> 100 µM (inactive)	> 100 µM (inactive)	> 100 µM (inactive)	> 100 µM (inactive)	> 100 µM (inactive)	> 100 µM (inactive)	> 100 µM (inactive)	> 100 µM (inactive)	> 100 µM (inactive)	> 100 µM (inactive)	> 100 µM (inactive)	> 100 µM (inactive)	> 100 µM (inactive)	> 100 µM (inactive)	> 100 µM (inactive)
